Source: ChEMBL document CHEMBL1137856, “The pharmacophore hypotheses of I(Kr) potassium channel blockers: novel class III antiarrhythmic agents” (Bioorg Med Chem Lett, 2004)

Each compound was assayed against Voltage-gated inwardly rectifying potassium channel KCNH2 (Homo sapiens, UniProt Q12809) (assay: Inhibitory concentration against IKr potassium channel).
Chain of Voltage-gated inwardly rectifying potassium channel KCNH2 (Q12809 whole entry): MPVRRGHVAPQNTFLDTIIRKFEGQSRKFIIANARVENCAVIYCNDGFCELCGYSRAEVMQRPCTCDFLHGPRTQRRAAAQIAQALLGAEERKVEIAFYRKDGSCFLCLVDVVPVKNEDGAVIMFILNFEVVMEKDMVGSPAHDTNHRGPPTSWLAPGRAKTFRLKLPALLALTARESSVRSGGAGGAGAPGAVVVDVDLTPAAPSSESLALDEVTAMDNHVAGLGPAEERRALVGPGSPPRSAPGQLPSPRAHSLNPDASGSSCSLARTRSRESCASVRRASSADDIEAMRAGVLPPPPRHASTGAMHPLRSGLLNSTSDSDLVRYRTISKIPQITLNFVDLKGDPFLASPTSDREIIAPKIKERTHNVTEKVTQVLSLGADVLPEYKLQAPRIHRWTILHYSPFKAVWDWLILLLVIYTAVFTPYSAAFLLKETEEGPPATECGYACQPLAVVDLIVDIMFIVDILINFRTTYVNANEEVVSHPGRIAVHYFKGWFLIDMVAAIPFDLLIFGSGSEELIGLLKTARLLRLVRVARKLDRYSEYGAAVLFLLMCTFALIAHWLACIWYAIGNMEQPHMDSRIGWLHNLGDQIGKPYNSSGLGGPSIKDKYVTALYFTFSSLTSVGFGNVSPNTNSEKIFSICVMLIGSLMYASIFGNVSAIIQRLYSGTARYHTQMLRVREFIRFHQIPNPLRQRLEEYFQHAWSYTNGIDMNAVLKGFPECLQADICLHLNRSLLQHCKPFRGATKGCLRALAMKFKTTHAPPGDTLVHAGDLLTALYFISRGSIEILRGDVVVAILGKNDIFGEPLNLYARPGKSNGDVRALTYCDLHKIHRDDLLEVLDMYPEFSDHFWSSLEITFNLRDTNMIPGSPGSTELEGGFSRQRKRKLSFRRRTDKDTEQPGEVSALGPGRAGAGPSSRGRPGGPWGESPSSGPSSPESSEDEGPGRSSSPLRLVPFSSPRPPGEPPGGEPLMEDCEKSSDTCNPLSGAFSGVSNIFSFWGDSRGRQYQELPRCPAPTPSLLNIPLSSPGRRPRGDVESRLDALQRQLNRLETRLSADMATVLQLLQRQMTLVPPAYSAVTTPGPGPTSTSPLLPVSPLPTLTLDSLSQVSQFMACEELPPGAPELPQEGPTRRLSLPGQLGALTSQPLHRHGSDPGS
Work on `CCCCCCCN(CC)CCCCc1ccc([N+](=O)[O-])cc1` yielded an IC50 of 0.01 µM.
Work on `COc1ccc(CCNCCCNC(=O)c2ccc([N+](=O)[O-])cc2)cc1OC` yielded an IC50 of 0.42 µM.
Work on `COc1cc2c(cc1OC)C(Cc1ccc(O)c(Oc3ccc(C[C@@H]4c5cc(OC)c(OC)cc5CCN4C)cc3)c1)N(C)CC2` (single isomer, unassigned) [DAURICINE] yielded an IC50 of 16 µM.
`CCCNCC(O)COc1ccc(O)cc1C(=O)CCc1ccccc1` (stereo not drawn) [5-HYDROXY PROPAFENONE] showed an IC50 of 40 µM.
Work on `CN1CCN(CCCCN2C(=O)CN(/N=C/c3ccc(-c4ccc(Cl)cc4)o3)C2=O)CC1` [AZIMILIDE] yielded an IC50 of 0.4 µM.
Compound `Nc1ccncc1` [DALFAMPRIDINE] has an IC50 of 4400 µM.
In the case of `CCCCc1oc2ccc(NS(C)(=O)=O)cc2c1C(=O)c1ccc(OCCCN(CCCC)CCCC)cc1` [DRONEDARONE], the IC50 is reported as 3 µM.
`CCCCN(CCCC)CC(O)c1cc(Cl)cc2c1-c1ccc(Cl)cc1C2=Cc1ccc(Cl)cc1` (stereo not drawn) [LUMEFANTRINE] gave an IC50 of 8.1 µM.
With `NCC(O)COc1ccccc1C(=O)CCc1ccccc1` (stereo not drawn) [N-DEPROPYL-PROPAPHENONE] the IC50 was 44 µM.
With `CCC1(c2ccccc2)C(=O)NC(=O)NC1=O` [PHENOBARBITAL] the IC50 was 3000 µM.
`COc1ccc(CN(CCN(C)C)c2ccccn2)cc1` [PYRILAMINE] was tested, and the IC50 was 1.1 µM.
`COc1ccc(C2CCN(CC[C@H]3CCOc4ccccc43)CC2)cc1OC` [TERIKALANT] was tested, and the IC50 was 0.03 µM.
`COc1ccc(C(=O)N2CCN(c3ccc4c(c3)CCC(=O)N4)CC2)cc1OC` [VESNARINONE] was tested, and the IC50 was 18 µM.
